Data taken from patent publication US6100291A, “Pyrrolidine-indole compounds having 5-HT6 affinity” (Allelix Biopharmaceuticals Inc., priority 1998, dated 2000).
Like-named read-outs stand apart in the source and are kept apart here.

What was measured:
human 5-HT6 receptor [1] = target: T1, human 5-HT6 receptor (Homo sapiens, UniProt P50406); test: Binding affinity for the 5-HT6 receptor (3H-LSD radioligand binding, membranes of cells expressing the 5-HT6 receptor); conditions: 60 minute incubation at 37° C.
T1 construct: expressed in transfected cells
T1 sequence (P50406 whole entry): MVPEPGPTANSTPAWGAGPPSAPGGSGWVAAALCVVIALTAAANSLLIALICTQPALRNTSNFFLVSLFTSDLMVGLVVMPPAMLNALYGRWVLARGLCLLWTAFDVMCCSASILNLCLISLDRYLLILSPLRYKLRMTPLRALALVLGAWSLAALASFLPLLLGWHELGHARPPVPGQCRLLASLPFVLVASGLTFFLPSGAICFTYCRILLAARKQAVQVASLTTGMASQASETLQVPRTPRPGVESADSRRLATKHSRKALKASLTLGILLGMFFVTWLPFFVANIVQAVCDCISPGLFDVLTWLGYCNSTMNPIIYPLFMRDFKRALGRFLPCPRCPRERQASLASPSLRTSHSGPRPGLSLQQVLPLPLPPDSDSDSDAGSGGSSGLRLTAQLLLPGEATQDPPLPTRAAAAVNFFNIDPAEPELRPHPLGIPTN
Method: All of the compounds of the invention were evaluated using cell types receptive specifically to the 5-HT6 receptor (for cloning and characterization of the human 5-HT6 receptor see Kohen, et al. J. Neurochemistry, 66, 1996: 47-56). […] After a 60 minute incubation at 37° C., the incubation was terminated by vacuum filtration. The filters were washed with buffer and the filters were counted for radioactivity using liquid scintillation spectrometry. The affinity of the test compound for the 5-HT6 receptor was determined by computer-assisted analysis of the data and determining the amount of the compound necessary to inhibit 50% of the binding of the radioligand to the receptor. Concentrations ranging from 10^-11 M to 10^-5 M of the test compound were evaluated.

human 5-HT2C receptor = target: T2, human 5-HT2C receptor (Homo sapiens, UniProt P28335); test: Binding selectivity for 5-HT6 relative to the human 5-HT2C receptor; conditions: 5-HT6 vs human 5-HT2C receptor
T2 sequence (P28335 33-458): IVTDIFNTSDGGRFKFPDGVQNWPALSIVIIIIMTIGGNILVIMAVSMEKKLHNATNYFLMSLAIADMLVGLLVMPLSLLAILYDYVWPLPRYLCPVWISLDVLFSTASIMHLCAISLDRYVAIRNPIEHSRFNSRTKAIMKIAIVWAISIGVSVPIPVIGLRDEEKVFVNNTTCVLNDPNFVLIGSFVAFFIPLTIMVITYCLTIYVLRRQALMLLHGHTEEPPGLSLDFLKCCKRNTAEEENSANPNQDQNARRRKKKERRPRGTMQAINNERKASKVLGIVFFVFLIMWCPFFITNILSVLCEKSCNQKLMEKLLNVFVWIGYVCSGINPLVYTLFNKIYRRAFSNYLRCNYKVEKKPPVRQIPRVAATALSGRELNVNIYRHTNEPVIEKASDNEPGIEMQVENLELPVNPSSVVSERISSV

human 5-HT7 receptor = human 5-HT7 receptor (Homo sapiens, UniProt P34969); test: Binding selectivity for 5-HT6 relative to the human 5-HT7 receptor; conditions: 5-HT6 vs human 5-HT7 receptor
human 5-HT7 receptor, sequence (P34969 whole entry): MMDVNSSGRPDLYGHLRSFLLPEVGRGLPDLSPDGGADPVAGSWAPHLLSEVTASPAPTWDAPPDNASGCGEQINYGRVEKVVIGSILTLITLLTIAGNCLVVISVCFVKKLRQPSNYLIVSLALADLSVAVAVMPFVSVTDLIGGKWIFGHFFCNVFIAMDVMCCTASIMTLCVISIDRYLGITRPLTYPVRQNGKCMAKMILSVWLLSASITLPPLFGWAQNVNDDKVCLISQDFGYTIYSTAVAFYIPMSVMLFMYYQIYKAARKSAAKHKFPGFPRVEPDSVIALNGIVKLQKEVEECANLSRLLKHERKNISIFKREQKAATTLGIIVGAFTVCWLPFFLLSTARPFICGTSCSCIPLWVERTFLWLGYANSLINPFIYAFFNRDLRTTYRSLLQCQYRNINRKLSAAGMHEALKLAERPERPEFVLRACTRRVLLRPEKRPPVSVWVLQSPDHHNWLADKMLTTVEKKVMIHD

human 5-HT6 receptor [2] = target: T1, human 5-HT6 receptor; test: Effect on the cAMP response of human 5-HT6 receptors in stably transfected HEK293 cells (EIA); assay type: cell-based
Method: The antagonist (or agonist) property of compounds for human 5-HT6 receptors was determined by testing their effect on cAMP accumulation in stably transfected HEK293 cells.
Binding of an agonist to the human 5-HT6 receptor will lead to a increase in adenyl cyclase activity. A compound which is an agonist will show an increase in cAMP production and a compound which is an antagonist will block the agonist effect.
Cell Assay: Human 5-HT6 receptors were cloned and stably expressed in HEK293 cells. These cells were plated in 6 well plates in DMEM/F12 media with 10% fetal calf serum (FCS) and 500 μg/mL G418 and incubated at 37° C. in a CO2 incubator. The cells were allowed to grow to about 70% confluence before initiation of the experiment.
On the day of the experiment, the culture media was removed, and the cells were washed once with serum free medium (SFM). Two mL of SFM+IBMX media was added and incubated at 37° C. for 10 min. The media were removed and fresh SFM+IBMX media containing various compounds, and 1 μM serotonin (as antagonist) were added to the appropriate wells and incubated for 30 min. Following incubation, the media were removed and the cells were washed once with 1 mL of PBS (phosphate buffered saline). Each well was treated with 1 mL cold 95% ethanol and 5 mM EDTA (2:1) at 4° C. for 1 hour. The cells were then scraped and transferred into Eppendorf tubes. The tubes were centrifuged for 5 min at 4° C., and the supernatants were stored at 4° C. until assayed.
cAMP Measurement: cAMP content was determined by EIA (enzyme-immunoassay) using the Amersham Biotrak cAMP EIA kit (Amersham RPN 225). The procedure used is as described for the kit. Briefly, cAMP is determined by the competition between unlabeled cAMP and a fixed quantity of peroxidase-labelled cAMP for the binding sites on anti-cAMP antibody. The antibody is immobilized onto polystyrene microtitre wells precoated with a second antibody. […] The reaction is stopped by the addition of 100 μL 1.0 M sulphuric acid and the resultant color read by a microtitre plate spectrophotometer at 450 nM within 30 minutes. […]

Row | Compound | Ki (human 5-HT6 receptor [1]; Ki) | also measured
1 | CN1CCC[C@@H]1Cc1cn(S(=O)(=O)c2ccccc2)c2ccc(OC3CCCCC3)cc12 [Example 4, (R)-5-Cyclohexyloxy-3-(1-methyl-2-pyrrolidinylmethyl)-1-phenylsulfonylindole] | ≤ 1 nM | –
2 | Cc1ccc(S(=O)(=O)n2cc(C[C@H]3CCCN3C)c3cc(F)ccc32)cc1 [Example 7c, (R)-5-Fluoro-1-(4-methylphenylsulphonyl)-3-(1-methyl-2-pyrrolidinylmethyl)-indole] | ≤ 1 nM | –
3 | CN1CCC[C@@H]1Cc1cn(C(=O)c2c(Cl)cccc2Cl)c2ccc(OC3CCCCC3)cc12 [Example 5n, (R)-5-Cyclohexyloxy-1-(2,6-dichlorobenzoyl)-3-(1-methyl-2-pyrrolidinylmethyl)indole] | – | greater affinity for human 5-HT6 receptor relative to human 5-HT2C (human 5-HT2C receptor): ≥ 36 fold; greater affinity for human 5-HT6 receptor relative to human 5-HT7 (human 5-HT7 receptor): ≥ 36 fold
4 | CN1CCC[C@@H]1Cc1cn(C(=O)c2ccc(F)cc2)c2ccc(Cl)cc12 [Example 5r, (R)-5-Chloro-1-(4-fluorobenzoyl)-3-(1-methyl-2-pyrrolidinylmethyl)indole] | – | EC50 (human 5-HT6 receptor [2]): 6 nM; greater affinity for human 5-HT6 receptor relative to human 5-HT2C (human 5-HT2C receptor): ≥ 36 fold; greater affinity for human 5-HT6 receptor relative to human 5-HT7 (human 5-HT7 receptor): ≥ 36 fold
5 | CN1CCC[C@@H]1Cc1cn(C(=O)c2ccccc2Cl)c2ccc(OC3CCCCC3)cc12 [Example 5j, (R)-1-(2-Chlorobenzoyl)-5-cyclohexyloxy-3-(1-methyl-2-pyrrolidinylmethyl)indole] | – | EC50 (human 5-HT6 receptor [2]): 64 nM
6 | CN1CCC[C@@H]1Cc1cn(C(=O)c2ccccc2)c2ccccc12 [Example 5g, (R)-1-Benzoyl-3-(1-methyl-2-pyrrolidinylmethyl)indole] | ≤ 10 nM | –
7 | CN1CCC[C@@H]1Cc1cn(S(=O)(=O)c2ccccc2)c2ccc(Cl)cc12 [Example 5d, (R)-5-Chloro-3-(1-methyl-2-pyrrolidinylmethyl)-1-phenylsulfonylindole] | ≤ 1 nM | EC50 (human 5-HT6 receptor [2]): 8.4 nM
8 | CN1CCC[C@@H]1Cc1cn(C(=O)c2ccccc2)c2ccc(Cl)cc12 [Example 5p, (R)-1-Benzoyl-5-chloro-3-(1-methyl-2-pyrrolidinylmethyl)indole] | ≤ 1 nM | –
9 | CN1CCC[C@@H]1Cc1cn(C(=O)c2ccccc2)c2ccc(OC3CCCCC3)cc12 [Example 7a, (R)-5-Cyclohexyloxy-3-(1-methyl-2-pyrrolidinylmethyl)-1-benzoylindole] | ≤ 10 nM | –
10 | CN1CCC[C@@H]1Cc1cn(S(=O)(=O)c2ccccc2)c2ccc(O)cc12 [Example 10, (R)-1-Phenylsulfonyl-5-hydroxy-3-(1-methyl-2-pyrrolidinylmethyl)indole] | ≤ 10 nM | –
11 | CN1CCC[C@@H]1Cc1cn(C(=O)c2ccccc2)c2ccc(Br)cc12 [Example 7d, (R)-1-Benzoyl-5-bromo-3-(1-methyl-2-pyrrolidinylmethyl) indole] | ≤ 1 nM | –
12 | CN1CCC[C@@H]1Cc1cn(S(=O)(=O)c2ccccc2)c2ccc(OCc3ccccc3)cc12 [Example 7e, (R)-5-Benzyloxyindole-3-(1-methyl-2-pyrrolidinylmethyl)-1-phenylsulfonylindole] | – | Ki (human 5-HT6 receptor [1]; read-out: Ki): ≤ 1 nM
